Results: US20220133753A1, “COMPOSITIONS AND METHODS USEFUL FOR TREATING DISEASES CHARACTERIZED BY INSUFFICIENT PANTOTHENATE KINASE ACTIVITY” (Comet Therapeutics, Inc., priority 2016, published 2022)

Legend:
[1] = Parallel Artificial Membrane Permeability Assay (PAMPA); type: in vitro ADME; conditions: PAMPA
Description: FIG. 13E is a depiction of a Parallel Artificial Membrane Permeability Assay (PAMPA). Experiments were performed according to the manufacturer's instructions. In this assay, a two-well system is separated by an artificial lipid-oil-lipid membrane (shown in grey). To the lower (donor) compartment, a compound dissolved in buffer is added, the upper (acceptor) compartment contains only buffer. After 5 hours of incubation, concentration of compound is measured in both wells to assess its propensity to diffuse over the artificial membrane. The permeability was calculated according to the manufacturer's instruction (formulas are depicted to the right). Compounds that are below the assay threshold are predicted to be unable to pass membranes passively, whereas compounds above the threshold are able to pass membranes passively. Ceq=Equilibrium Concentration, CD=Concentration in donor well, VD=Volume of donor well (0.3 ml), CA=Concentration in acceptor well, VA=Volume of acceptor well (0.2 ml), P=Permeability, S=Membrane area (0.3 cm2), t=Incubation time (18000 s).
PAMPA assay procedure: Parallel Artificial Membrane Permeability Assay (PAMPA) was performed and processed according to manufacturer's instructions (BD Gentest Pre-coated PAMPA plates). Briefly, two superimposed wells are separated by an artificial lipid-oil-lipid membrane. The compound of interest (PPanSH, CoA, caffeine, amiloride) was added to the bottom well in phosphate-buffered saline, whereas the top well was filled with phosphate-buffered saline alone. After 5 h of incubation at room temperature, concentrations of the different compounds were measured using UV-VIS absorption spectroscopy (BMG Labtech SPECTROstar Omega) along with calibration curves for all compounds. The permeability efficiency was further calculated according to manufacturer's instructions. For caffeine and amiloride, four replicates were performed; for PPanSH and CoA twelve replicates were performed. Caffeine and amiloride were obtained from Sigma.

[2] = test system: conversion of CoA into 4′-phosphopantetheine in serum; type: biochemical; conditions: serum pre-treated with the agent, CoA 10 μM, 3 hours
Description: (PpanSH=4′-phosphopantetheine; in all panels CoA was added to the indicated sera with a final starting concentration of 10 μM measured by HPLC analysis and percentages relative to CoA incubation for 3 hours in PBS (=100%) are indicated on the y-axis).
Serum from various species (fetal calf, mouse and human) was pre-conditioned, and CoA conversion into 4′-phosphopantetheine was assessed. First, the effect of heat inactivation of the serum was studied. […] Second, the conversion of CoA to 4′-phosphopantetheine requires the hydrolysis of a phosphoanhydride bond, which is typically catalyzed by (pyro)phosphatases or hydrolases. The majority of enzymes in the known family of (pyro)phosphatases and hydrolases depend on metal ions for their activity. To test these candidates, EDTA was added to serum to chelate metal ions.

[3] = test system: MCAD patient fibroblast cell lines; assay: Mitochondrial stress test (Seahorse), reserve capacity of MCAD patient fibroblasts; type: cell-based, human; conditions: all cell lines, data not shown
From the text: Medium-chain acyl-CoA dehydrogenase (MCAD) deficiency is a condition in which the body's capacity to break down fats with medium chain lengths is impaired, caused by mutations in the ACADM gene, which can lead to hypoglycaemia, and liver dysfunction. Left untreated, it can lead to seizures, coma and other serious health problems, with acute symptoms often preceded by extended periods of fasting or an infection with vomiting. Impaired metabolism were observed through functional measurements of respiration using a Seahorse XF Analyzer, where oxygen consumption rate (OCR) reflects oxidative respiration.
A study was performed to test the Rescue potential of S-acetyl-4′-phosphopantetheine in primary patient fibroblast model of MCAD deficiency. MCAD patient fibroblast cell lines (genotyped as containing homozygous K304E mutations in ACADM) were subject to a mitochondrial stress test according to standard protocol with a cell seeding density of 30 k cells/well (n=2). Rescue potential was assessed by increase in reserve capacity: defined as the difference between basal and maximal OCR, controlled by subtracting values for non-mitochondiral respiration (after rotenone treatment). The study was performed in two replicates.

[4] = test system: primary human fibroblasts from healthy controls, MCAD deficiency and PA deficiency patients; assay: Mitochondrial stress test (Seahorse), basal OCR of primary fibroblasts; type: cell-based; conditions: data not shown
From the text: A study was thus performed to test the ability of S-acetyl-(S)-4′-phosphopantetheine to facilitate increased basal oxidative respiration in primary fibroblast cultures from patients diagnosed with MCAD deficiency and PA deficiency. Impaired metabolism were observed through functional measurements of respiration using a Seahorse XF Analyzer, where oxygen consumption rate (OCR) reflects oxidative respiration.
Patient derived cell lines were subject to a mitochondrial stress test according to standard protocol with a cell seeding density of 30 k cells/well (n=2) in glucose free media. After incubation with various concentrations of S-acetyl-4′-phosphopantetheine or vehicle for 24 h, rescue potential was assessed by increase in basal OCR (average of six readings between 30-70 min), relative to control: basal OCR from vehicle treatment was set to 1.0. […] Experiment was performed in two replicates: systematically outlying values caused by seeding errors, port failures, or values within background were excluded from analysis.

Drosophila S2 cells = assay: HoPan treatment of Drosophila S2 cells in combination with CoA or 4′-phosphopantetheine; type: cell-based; conditions: HoPan alone
Description: HoPan treatment of Drosophila S2 Cell in combination with CoA or 4′-phosphopantetheine treatment: Drosophila Schneider's S2 cells were maintained at standard conditions as explained above. Cells in the exponential phase of growth were used for all the experiments. Different indicated concentrations of CoA or 4′-phosphopantetheine (deuterium labelled PPanSH(D4) or unlabeled PPanSH) were added to S2 cells either in the presence or absence of 0.5 mM HoPan (Zhou Fang Pharm Chemical, China) for 48 h. Similarly, Drosophila S2 cells were treated with different concentrations of PPanSH(D4) at either 25° C. or 4° C. and cells were then harvested at various time points to access transport of PPanSH(D4). Stable isotope labelled PPanSH containing 4 deuterium atoms was purchased from Syncom (Groningen, The Netherlands) as a sodium salt (chemical structure is provided in FIG. 13A). As a read out cell count, intracellular total CoA and PPanSH levels (both labelled and unlabeled levels wherever appropriate) and histone acetylation levels were analyzed as explained below.
Drosophila S2 Cell Immunofluorescence Staining: For immunofluorescence Drosophila S2 cells were seeded on Poly-L-Lysine coated (Sigma-Aldrich) glass microscope slides and allowed to settle for 45 min. Cells were fixed with 3.7% formaldehyde (Sigma Aldrich) for 20 min, washed briefly with PBS+0.1% Triton-X-100 (Sigma Aldrich) and permeabilized with PBS+0.2% Triton-X-100 for 20 min. The slides were incubated in primary antibody (rabbit anti-AcLys, Cell Signaling Cat No: 9441, 1:500) to visualize histone acetylation levels in PBS+0.1% Triton-X-100 overnight and after an additional washing step in PBS+0.1% Triton-X-100 they were incubated in secondary goat anti-rabbit-Alexa488 antibody (Molecular Probes) for two hours at room temperature (RT). F-actin was detected with Rhodamin-Phalloidin (20 U/ml)(Invitrogen) and DNA by staining with DAPI (0.2 ug/ml) (Thermo Scientific). Finally the samples were mounted in 80% glycerol and analyzed using a Leica fluorescence microscope with Leica software. Adobe Photoshop and Illustrator (Adobe Systems Incorporated, San Jose, Calif., USA) were used for image assembly.

HEK293 cells = assay: HoPan treatment of mammalian HEK293 cells in combination with CoA or 4′-phosphopantetheine; type: cell-based, human; conditions: HoPan alone
Description: HoPan treatment of mammalian HEK293 Cells in combination with CoA and 4′-phosphopantetheine treatment: HEK293 cells were maintained in dMEM (Invitrogen) supplemented with 10% fetal calf serum (Gibco) and antibiotics (penicillin/streptomycin, Invitrogen). For HoPan treatment, cells were cultured in custom made dMEM without vitamin B5 (Thermo Scientific) supplemented with dialyzed FCS (Thermo Scientific). CoA or PPanSH was added to HEK293 cells for the final concentration of 25 uM, either in the presence or absence of HoPan (0.5 mM) for 4 days, followed by analysis for phenotype and rescue efficiency of CoA and PPanSH.
Western blot analysis and Antibodies: For Western blot analysis, cells were collected and washed with phosphate buffer saline (PBS), followed by centrifugation. The cells were lysed and sonicated in 1X Laemmli Sample Buffer and boiled for 5 min with 5% β-mercaptoethanol (Sigma). Protein content was determined using DC protein assay (BioRad). Equal amounts of protein were loaded on a 10 or 12.5% SDS-PAGE gel, transferred onto PVDF membranes and blocked with 5% milk in PBS/0.1% Tween, followed by overnight incubation with primary antibodies. The primary antibodies used were: rabbit-anti dPANK/fbl, 1:4000 Eurogentec custom made as described previously5, mouse anti-tubulin (Sigma Aldrich Cat no: T5168, 1:5000), anti-acetyl-Histone3 (Active Motif Cat no: 39139, 1:2000), anti GAPDH (Fitzgerald Cat no: 10R-G109a, 1:10000), rabbit anti COASY (Abcam Cat no: AB129012, 1:1000). Appropriate HRP-conjugated secondary antibodies (Amersham) were used and detection was performed using enhanced chemi-luminescence (Pierce cat nog: 32106) and Amersham hyperfilm (GE Healthcare). Band intensities were quantified with Image-studio software.

[5] = test system: Drosophila w1118 control fly line; assay: Drosophila HoPan toxicity and CoA rescue experiment (eclosion); type: in vivo; conditions: HoPan in the food during development
From the text: Drosophila HoPan Toxicity and CoA Rescue Experiment: One week old w1118 flies (in the ratio 10 females and 5 males) were kept in vials containing standard fly food with or without HoPan and CoA at indicated concentrations. The flies were allowed to lay eggs for 2 days, after which the adults were discarded. The resulting offspring were allowed to develop. The numbers of flies which eclosed were counted to evaluate HoPan toxicity and CoA rescue efficiency.

Cn1c(=O)c2c(ncn2C)n(C)c1=O [caffeine]
membrane permeation (PAMPA) [1]: well-permeating compound

N=C(N)NC(=O)c1nc(Cl)c(N)nc1N [amiloride]
membrane permeation (PAMPA) [1]: poorly permeating molecule

Nc1ncnc2c1ncn2[C@@H]1O[C@H](COP(=O)(O)OP(=O)(O)OP(=O)(O)O)[C@@H](O)[C@H]1O [ATP]
effect on conversion (degradation) of CoA into 4′-phosphopantetheine in serum [2]: competitively blocked the conversion

O=C(O)CN(CCN(CC(=O)O)CC(=O)O)CC(=O)O [EDTA]
effect on conversion (degradation) of CoA into 4′-phosphopantetheine in serum [2]: completely prevented the formation of 4′-phosphopantetheine

O=S(=O)(O)c1cc(N=C=S)ccc1C=Cc1ccc(N=C=S)cc1S(=O)(=O)O [DIDS, 4,4′-diisothiocyanatostilbene-2,2′ disulphonic acid]
effect on conversion (degradation) of CoA into 4′-phosphopantetheine in serum [2]: able to inhibit

C=C(C)[C@H]1Cc2c(ccc3c2O[C@@H]2COc4cc(OC)c(OC)cc4[C@@H]2C3=O)O1 [Rotenone]
cell line response to positive control [3]: generated expected profiles of ETC inhibition | cell line response to positive control [4]: generated expected profiles

Cc1ccc(C(=O)Nc2ccc(S(=O)(=O)O)c3cc(S(=O)(=O)O)cc(S(=O)(=O)O)c23)cc1NC(=O)c1cccc(NC(=O)Nc2cccc(C(=O)Nc3cc(C(=O)Nc4ccc(S(=O)(=O)O)c5cc(S(=O)(=O)O)cc(S(=O)(=O)O)c45)ccc3C)c2)c1 [suramin]
effect on conversion (degradation) of CoA into 4′-phosphopantetheine in serum [2]: able to inhibit

Nc1ncnc2c1ncn2[C@@H]1O[C@H](COP(=O)(O)OP(=O)(O)O)[C@@H](O)[C@H]1O [ADP]
effect on conversion (degradation) of CoA into 4′-phosphopantetheine in serum [2]: competitively blocked the conversion

[F-].[Na+] [sodium fluoride, Sodium fluoride]
effect on conversion (degradation) of CoA into 4′-phosphopantetheine in serum [2]: only mild or no inhibition

CC(C)(CO)[C@@H](O)C(=O)NCCCC(=O)O [HoPan, Hopantenate]
cell count of S2 cells (Drosophila S2 cells): induced a decrease in cell count | histone acetylation levels of S2 cells (Drosophila S2 cells): induced a decrease | intracellular CoA levels (Drosophila S2 cells; S2 cells, HPLC): significantly reduced | intracellular levels of 4′-phosphopantetheine (Drosophila S2 cells; S2 cells, HPLC): reduced levels of 4′-phosphopantetheine | intracellular CoA levels (HEK293 cells; HEK293 cells, HPLC): significantly reduced | cell count of HEK293 cells (HEK293 cells): decreased cell count | histone acetylation of HEK293 cells (HEK293 cells): impaired histone acetylation | eclosion rate [5]: decreased | larval lethality [5]: larval lethality was induced

c1ccc([C@H]2CN3CCSC3=N2)cc1 [Levamisole, levamisole]
effect on conversion (degradation) of CoA into 4′-phosphopantetheine in serum [2]: only mild or no inhibition
